Measurements: patent US20250262185A1, “METHODS OF ADMINISTERING NEUROPSYCHIATRIC MEDICATIONS BASED ON RENAL IMPAIRMENT” (Sumitomo Pharma America, Inc., priority 2024, published 2025)
Like-named read-outs stand apart in the source and are kept apart here.

Columns and labels:
hERG = hERG (Homo sapiens, UniProt Q12809); experiment: toxicological studies, hERG inhibition; assay type: biochemical; settings: concentrations up to 30 μM
[1] = in vivo
Text: Any of the embodiments of this disclosure can be practiced to prevent accumulation of SEP-103 in the body exceeding levels studied and deemed safe in preclinical toxicology studies. […].

clinical = settings: both, human, plasma, oral, 25 mg
Description: (§1) Renal function was assessed according to estimated glomerular filtration rate (eGFR) calculated using the Modification of Diet in Renal Disease (MDRD) equation at Screening and Check-in.
(§2) Healthy controls with normal renal function were enrolled in an effort to approximately match demographics (age, sex, weight, race) across the 2 groups. Potential subjects were screened to assess their eligibility to enter the study within 28 days (Day −28 to Day −3) prior to dose administration (Day 1).
(§3) Nine healthy controls, 9 subjects with mild renal impairment, and 6 subjects with moderate renal impairment were enrolled.
(§4) Male and female subjects aged between 18 and 70 years (inclusive) with a body mass index (BMI) between 18.0 and 40.0 kg/m^2 (inclusive) were eligible for study inclusion. Subjects were in good health except for specific inclusion criteria related to the status of renal impairment.
(§5) Subjects fasted for a minimum of 8 hours before dosing, and an additional 4 hours post-dose; intake of water was restricted except for the period from 1-hour pre-dose through 1-hour post-dose.
(§6) Final Results: Results were obtained by fitting an ANOVA model to the natural log-transformed PK parameter, with renal function group as fixed effect and subject as random effect. Results were back transformed to obtain the geometric LS mean ratio and 90% CI.

[2] = Phase 1 pharmacokinetic study of SEP-856 in subjects with mild and moderate renal impairment compared to normal renal function (Example 3); settings: for SEP-383103 AUC0-∞ Geo LS Mean / SEP-383103 Cmax Geo LS Mean: ANOVA; for SEP-383103 AUC0-∞ Geo LS Mean / SEP-383103 Cmax Geo LS Mean / MRAUC (metabolite-to-parent ratio based on AUC0-∞) / SEP-383103 plasma Cmax / SEP-383103 plasma Tmax: n=8; for MRAUC (metabolite-to-parent ratio based on AUC0-∞) / SEP-383103 plasma Cmax: GeoMean; for SEP-383103 plasma Cmax / SEP-383103 plasma Tmax: metabolite after single dose SEP-363856 25 mg; for SEP-383103 plasma Tmax: Median
Description: as §1, §2, §3, §4, §5, §6

[3] = Phase 1 pharmacokinetic study of SEP-363856 in subjects with severe renal impairment and ESRD compared to normal renal function (Example 1)
Description: Renal function was assessed according to estimated glomerular filtration rate (eGFR) calculated using the Modification of Diet in Renal Disease (MDRD) equation at Screening and Check-in. Estimates calculated using the Cockcroft-Gault equation were also reported. Subjects in Group 1 had severe renal impairment not requiring dialysis and subjects in Group 2 had ESRD requiring dialysis.
Healthy matched controls with normal renal function were enrolled to match (age, sex, weight, race) across the 2 groups. A healthy control could be matched to more than 1 renally impaired subject. Potential subjects were screened to assess their eligibility to enter the study within 28 days (Day −28 to Day −3) prior to dose administration (Day 1). Each subject completed 1 or 2 treatment periods (1 treatment period for Group 1 and normal healthy subjects with normal renal function and 2 treatment periods for Group 2).
Subjects in Group 1 and the normal healthy subjects were admitted into the Clinical Research Unit (CRU) on Day −2 and confined to the CRU until discharge on Day 5. […] No food was allowed for 4 hours post-dose. Subjects in Group 1 returned to the CRU for a Follow-up visit approximately 7 days after discharge (i.e., Day 12±2).
Subjects in Group 2 followed their established dialysis schedule. They were admitted into the CRU on Day −2 and confined to the CRU until discharge on Day 5. […]

[4] = final results, Moderate vs Healthy

Chain of hERG (Q12809 whole entry): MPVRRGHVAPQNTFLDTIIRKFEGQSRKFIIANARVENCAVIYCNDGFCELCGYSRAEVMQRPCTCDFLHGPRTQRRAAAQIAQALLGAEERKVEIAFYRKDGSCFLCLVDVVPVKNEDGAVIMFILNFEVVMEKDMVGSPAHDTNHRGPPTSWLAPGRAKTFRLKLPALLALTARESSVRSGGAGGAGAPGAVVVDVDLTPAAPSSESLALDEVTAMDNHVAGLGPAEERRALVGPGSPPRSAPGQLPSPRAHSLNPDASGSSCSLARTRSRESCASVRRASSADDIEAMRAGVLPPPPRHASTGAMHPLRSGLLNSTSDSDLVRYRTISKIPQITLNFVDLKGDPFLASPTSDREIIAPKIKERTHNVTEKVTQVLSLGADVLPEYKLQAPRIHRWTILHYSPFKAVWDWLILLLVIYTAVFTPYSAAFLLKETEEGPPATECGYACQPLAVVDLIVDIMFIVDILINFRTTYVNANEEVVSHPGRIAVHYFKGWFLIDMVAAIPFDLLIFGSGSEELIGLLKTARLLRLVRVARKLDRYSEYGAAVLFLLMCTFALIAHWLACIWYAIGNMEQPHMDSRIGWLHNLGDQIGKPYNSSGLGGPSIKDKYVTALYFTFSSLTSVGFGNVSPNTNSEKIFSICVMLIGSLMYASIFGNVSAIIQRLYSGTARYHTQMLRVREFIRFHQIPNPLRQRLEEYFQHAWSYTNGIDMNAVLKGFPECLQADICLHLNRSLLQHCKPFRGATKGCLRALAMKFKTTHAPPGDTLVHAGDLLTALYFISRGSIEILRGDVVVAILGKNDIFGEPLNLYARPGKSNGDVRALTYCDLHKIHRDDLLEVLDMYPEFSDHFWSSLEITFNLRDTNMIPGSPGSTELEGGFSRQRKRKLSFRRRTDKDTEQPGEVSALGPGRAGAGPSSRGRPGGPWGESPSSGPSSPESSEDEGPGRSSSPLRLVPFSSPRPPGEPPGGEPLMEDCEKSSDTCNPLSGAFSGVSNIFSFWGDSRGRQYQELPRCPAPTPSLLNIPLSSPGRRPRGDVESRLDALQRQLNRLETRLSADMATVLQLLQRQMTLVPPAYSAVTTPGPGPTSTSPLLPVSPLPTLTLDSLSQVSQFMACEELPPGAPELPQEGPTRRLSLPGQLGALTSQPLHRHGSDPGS

Q: For `O=C(O)[C@@H]1OCCc2ccsc21` [SEP-383103], which hERG inhibition (hERG) is on record?
A: The hERG inhibition was “no hERG inhibition”.

Q: And the “blood concentration studied and deemed to be safe” value ([1]; dog)?
A: Its value is 1100 ng/mL.

Q: And the “exposure level studied and deemed to be safe” value ([1]; dog)?
A: The value was 12200 ng·h/mL.

Q: What about the “blood concentration studied and deemed to be safe” value ([1]; rat) of the same molecule?
A: Its value is 700 ng/mL.

Q: What about the “exposure level studied and deemed to be safe” value ([1]; rat) of the same molecule?
A: The value was 11700 ng·h/mL.

Q: And the AUC(0-inf) (clinical)?
A: Its AUC(0-inf) is 613 ng·h/mL.

Q: And the “correlation between exposure (AUC0-∞ and Cmax) and degree of renal impairment” value ([2]; final results)?
A: The value was “significant correlation”.

Q: What about the “SEP-383103 AUC0-∞ Geo LS Mean” value ([2]; final results, Mild) of the same molecule?
A: The value was 769.5 ng·h/mL.

Q: What about the “SEP-383103 Cmax Geo LS Mean” value ([2]; final results, Mild) of the same molecule?
A: Its value is 54.98 ng/mL.

Q: What about the “SEP-383103 AUC0-∞ Geo LS Mean” value ([2]; final results, Moderate) of the same molecule?
A: The value was 1043 ng·h/mL.

Q: And the “SEP-383103 Cmax Geo LS Mean” value ([2]; final results, Moderate)?
A: The value was 56.30 ng/mL.

Q: What about the “MRAUC (metabolite-to-parent ratio based on AUC0-∞)” value ([2]; final results, Healthy) of the same molecule?
A: Its value is 0.7348.

Q: What about the “SEP-383103 AUC0-∞ Geo LS Mean Ratio” value ([2]; final results, Mild vs Healthy) of the same molecule?
A: Its value is 125.47%.

Q: What about the “SEP-383103 Cmax Geo LS Mean Ratio” value ([2]; final results, Mild vs Healthy) of the same molecule?
A: Its value is 128.43%.

Q: What about the “MRAUC (metabolite-to-parent ratio based on AUC0-∞)” value ([2]; final results, Mild) of the same molecule?
A: Its value is 0.9643.

Q: What about the “SEP-383103 AUC0-∞ Geo LS Mean Ratio” value [2, 4] of the same molecule?
A: The value was 170.12%.

Q: What about the “SEP-383103 Cmax Geo LS Mean Ratio” value [2, 4] of the same molecule?
A: Its value is 131.50%.

Q: And the “MRAUC (metabolite-to-parent ratio based on AUC0-∞)” value ([2]; final results, Moderate)?
A: The value was 1.276.

Q: What about the “SEP-383103 plasma Cmax” value ([2]; final results, Mild) of the same molecule?
A: The value was 54.98 ng/mL.

Q: What about the “SEP-383103 plasma Tmax” value ([2]; final results, Mild) of the same molecule?
A: The value was 5.000 h.

Q: And the “SEP-383103 plasma Cmax” value ([2]; final results, Moderate)?
A: Its value is 56.30 ng/mL.

Q: What about the “SEP-383103 plasma Tmax” value ([2]; final results, Moderate) of the same molecule?
A: The value was 6.000 h.

Q: What about the “metabolite Tmax change” value ([2]; mild renal impairment vs healthy) of the same molecule?
A: The value was “no change”.

Q: And the “correlation between exposure (AUC0-∞ and AUC0-last) and renal function” value ([3]; human, in vivo)?
A: Its value is “strong correlation”.

Q: And the “metabolite median Tmax versus healthy subjects” value ([3]; severe renal impairment)?
A: The value was “delayed substantially”.
